According to article PMC12040275, “Fusaric acid-mediated S-glutathionylation of MaAKT1 channel confers the virulence of Foc TR4 to banana” (PLOS Pathogens, 2025):

How the values were obtained:
MaAKT1 [1] = molecular target: T1, MaAKT1 (Musa acuminata, UniProt A0A804HWY8); test: whole-cell patch clamp, HEK-293; format: cell-based; details: HEK293
T1 construct: synthesized cDNA in pcDNA 6/His A, expressed in HEK-293 cells; patch-clamp

MaAKT1 [2] = molecular target: T1, MaAKT1; test: patch clamp, giant inside-out patches from HEK-293; format: biochemical; details: covalent (cysteine thiol oxidation); applied to cytosolic side; -194 mV

T1 sequence (A0A804HWY8 1-891): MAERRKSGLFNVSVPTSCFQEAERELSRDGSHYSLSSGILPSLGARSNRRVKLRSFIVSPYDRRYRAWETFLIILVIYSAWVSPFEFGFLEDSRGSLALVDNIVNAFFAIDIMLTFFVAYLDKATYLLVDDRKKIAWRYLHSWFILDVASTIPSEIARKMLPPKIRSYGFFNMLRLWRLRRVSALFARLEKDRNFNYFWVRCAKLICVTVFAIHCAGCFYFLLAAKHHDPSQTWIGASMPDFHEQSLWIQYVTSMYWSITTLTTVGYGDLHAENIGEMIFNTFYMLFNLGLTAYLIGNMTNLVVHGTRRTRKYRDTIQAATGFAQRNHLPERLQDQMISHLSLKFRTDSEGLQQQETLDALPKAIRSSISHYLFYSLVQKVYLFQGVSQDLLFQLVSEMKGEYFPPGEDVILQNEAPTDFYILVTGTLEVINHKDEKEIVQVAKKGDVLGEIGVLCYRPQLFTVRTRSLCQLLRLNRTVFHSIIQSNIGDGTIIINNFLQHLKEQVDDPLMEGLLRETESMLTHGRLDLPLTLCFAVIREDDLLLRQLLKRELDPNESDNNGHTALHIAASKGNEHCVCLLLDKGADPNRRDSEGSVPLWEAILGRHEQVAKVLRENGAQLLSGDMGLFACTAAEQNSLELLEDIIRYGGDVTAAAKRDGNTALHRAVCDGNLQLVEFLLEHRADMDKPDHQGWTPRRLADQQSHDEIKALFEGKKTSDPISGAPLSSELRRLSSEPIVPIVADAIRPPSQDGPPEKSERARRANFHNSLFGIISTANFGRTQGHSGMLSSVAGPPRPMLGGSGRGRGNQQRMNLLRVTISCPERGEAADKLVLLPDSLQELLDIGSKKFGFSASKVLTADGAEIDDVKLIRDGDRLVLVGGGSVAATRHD

c1ccc(SSc2ccccn2)nc1 [2-DTP, 2,2-Dithiodipyridine]
inhibition at 50 µM (MaAKT1 [1]): 61.5 ± 6.66%

O=C(O)c1cc(SSc2ccc([N+](=O)[O-])c(C(=O)O)c2)ccc1[N+](=O)[O-] [DTNB, 5,5-dithiobis-2-nitrobenzoic acid]
patch clamp, giant inside-out patches from HEK-293 (MaAKT1 [2]): low concentration of DTNB significantly inhibited MaAKT1

O=[N+]([O-])c1ccc(SSc2ccc([N+](=O)[O-])cn2)nc1 [DTNP, 2,2’-dithiobis-5-nitropyridine]
inhibition at 50 µM (MaAKT1 [1]): 60 ± 9.89%
